Laboratory results taken from ChEMBL document CHEMBL3352749, “An iridoid glucoside and the related aglycones from Cornus florida” (J Nat Prod, 2014).
The source made the active and inactive calls.

Columns and labels:
MCF7 = experiment: Growth inhibition of human MCF7 cells up to 100 uM; format: functional, cell-based
BG02 = experiment: Growth inhibition of human BG02 cells up to 100 uM; format: functional, cell-based
[1] = biological target: T1, Peroxisome proliferator-activated receptor gamma (Homo sapiens) (UniProt P37231); experiment: Agonist activity at PPARgamma (unknown origin)
T1 sequence (whole entry): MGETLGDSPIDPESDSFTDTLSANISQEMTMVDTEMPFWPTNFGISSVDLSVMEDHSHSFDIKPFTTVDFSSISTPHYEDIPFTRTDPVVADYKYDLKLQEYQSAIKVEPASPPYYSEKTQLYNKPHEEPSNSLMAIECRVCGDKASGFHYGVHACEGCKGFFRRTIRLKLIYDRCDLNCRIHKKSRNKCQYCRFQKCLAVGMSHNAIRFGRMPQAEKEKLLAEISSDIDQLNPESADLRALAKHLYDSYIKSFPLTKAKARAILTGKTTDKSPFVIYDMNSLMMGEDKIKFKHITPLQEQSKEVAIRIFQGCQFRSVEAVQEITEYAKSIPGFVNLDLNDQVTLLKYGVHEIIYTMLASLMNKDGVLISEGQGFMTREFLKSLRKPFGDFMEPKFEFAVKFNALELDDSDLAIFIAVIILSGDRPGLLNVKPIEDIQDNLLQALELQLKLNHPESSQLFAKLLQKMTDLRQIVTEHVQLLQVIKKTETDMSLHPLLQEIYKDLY

MDA-MB-231 = experiment: Growth inhibition of human MDA-MB-231 cells up to 100 uM; format: functional, cell-based

Measured: Activity

C[C@H]1C[C@@H](O)[C@@H]2CC(=O)OC[C@@H]21
inactive: MCF7 | BG02 | [1]

COC(=O)[C@@H]1C(=O)OC[C@H]2[C@@H]1[C@H](O)C[C@@H]2C
inactive: all assays above

C[C@H]1C[C@@H]2OC(=O)[C@@H]3C(=O)OC[C@H]1[C@@H]32
inactive: all assays above

C[C@H]1C[C@@H]2OC(=O)C[C@@H]2[C@@H]1CO
inactive: all assays above

COC(=O)[C@H]1C(=O)O[C@H]2C[C@H](C)[C@@H](CO[C@@H]3O[C@H](CO)[C@@H](O)[C@H](O)[C@H]3O)[C@@H]12
inactive: MCF7 | MDA-MB-231 | BG02
